Results: patent publication US6403614B1, “Benzothiophenes” (Eli Lilly and Company, priority 1997, dated 2002)

How the values were obtained:
Type in all cases: in vivo, Sprague Dawley rats
[1] = system: ovariectomized rats; assay: Four Day Ovariectomized Rat Model: wet uterine weight; conditions: OVX rats, orally administered at 0.1 mg/kg/day, four days, versus untreated ovariectomized animals
Source text: (§1) Estrogenicity: Four Day Ovariectomized Rat Model
(§2) Seventy-five day old female Sprague Dawley rats (weight range of 225 g-275 g) were obtained from Charles River Laboratories (Portage, Mich.). The animals were either bilaterally ovariectomized (OVX) or exposed to a Sham surgical procedure at Charles River Laboratories, and then shipped after one week. Upon arrival, these rats were housed in metal hanging cases in groups of three or four animals per cage, and had ad libitum access to food (Teklad diet, TD 89222, 0.5% calcium, 0.4% phosphorous; Madison, Wis.) and water. Room temperature was maintained at 22.2° C.±1.7° C. with a minimum relative humidity of 40%. The photoperiod in the room was twelve hours light and twelve hours dark. Comparative data were obtained between untreated ovariectomized rats, ovariectomized rats treated with 17α-ethynylestradiol (EE2), and ovariectomized rats treated with representative compounds of the present invention.
After a one-week acclimation period (two weeks post-OVX), daily dosing with test compound and 17α-ethynylestradiol was initiated. The test compounds or 17α-ethynylestradiol (Sigma Chemical Co., St. Louis, Mo.) were given orally, unless otherwise stated, as a suspension in 20% cyclodextrin (CDX). […] The animals were then sacrificed by asphyxiation with CO2, the uterus was removed through a midline incision, and a wet uterine weight was determined.

[2] = system: ovariectomized rats; assay: Four Day Ovariectomized Rat Model: Uterine Eosinophil Peroxidase (EPO) Assay; conditions: OVX rats, oral daily for four days
Source text: as §1
as §2, with “Comparative data were obtained between untreated ovariectomized rats, ovariectomized rats treated with 17α-ethynylestradiol (EE2), and ovariectomized rats treated with representative compounds of the present invention.” left out
(§3) After a one-week acclimation period (two weeks post-OVX), daily dosing with test compound and 17α-ethynylestradiol was initiated. […] The animals were then sacrificed by asphyxiation with CO2, the uterus was removed through a midline incision, and a wet uterine weight was determined.
Uteri were kept at 4° C. until time of enzymatic analysis. […] Upon addition of 0.01% hydrogen peroxide and […] o-phenylenediamine (final concentrations) in Tris buffer, the increase in absorbance was monitored for one minute at 450 nm. […] The maximal velocity of a fifteen second interval was determined over the initial, linear portion of the reaction curve.

[3] = system: ovariectomized rats; assay: Four Day Ovariectomized Rat Model: Serum Cholesterol Analysis; conditions: OVX rats, orally administered at 0.1 mg/kg/day, four days
Source text: as §1
as §2, with “Comparative data were obtained between untreated ovariectomized rats, ovariectomized rats treated with 17α-ethynylestradiol (EE2), and ovariectomized rats treated with representative compounds of the present invention.” left out
as §3
The blood samples, collected as described above, were allowed to clot at room temperature for two hours, and serum was obtained following centrifugation for ten minutes at 3000 rpm. Serum cholesterol was determined using a high-performance cholesterol assay (Boehringer Mannheim Diagnostics, Indianapolis, Ind.). […] Cholesterol concentration was then calculated against a standard curve.

[4] = system: ovariectomized rats; assay: Bone Sparing: Five Week Ovariectomized Rat Model, femur X-ray Bone Assay; conditions: OVX rats, oral gavage daily for 35 days, dose of 0.01 mg/kg
Source text: Seventy-five day old female Sprague Dawley rats (weight range of 275 g-350 g) were obtained from Charles River Laboratories (Portage, Mich.). The animals were either bilaterally ovariectomized (OVX) or exposed to a Sham surgical procedure at Charles River Laboratories, and then shipped the day following surgery. Upon arrival, these rats were housed in metal hanging cases in groups of three or four animals per cage, and had ad libitum access to food (Teklad diet, TD 89222, 0.5% calcium, 0.4% phosphorous; Madison, Wis.) and water. Room temperature was maintained at 22.2° C.±1.7° C. with a minimum relative humidity of 40%. The photoperiod in the room was twelve hours light and twelve hours dark. Test compound preparation was the same as that described in the Estrogenicty assay above. After a one day acclimation period (two days post-OVX), dosing with test compounds was initiated. Oral gavages 20% CDX, representative compound of the invention (0.01 to 10 mg/kg), or 17α-ethynylestradiol (100 μg/kg) were delivered daily for 35 consecutive days. On the evening following the final dose, the animals were fasted. The next morning the animals were aneshetized with a mixture of Ketaset® and Rompun® (67 and 6.7 mg/kg respectively). […] Quantitation was achieved by measuring the total number of pixels in a standard region of interest proximal to the growth plate, over a gray scale range of zero to 60.

Row | Compound | uterine weight [1] | eosinophil infiltration (uterine EPO) [2] | serum cholesterol [3] | protection of the femur from bone loss (X-ray evaluation) [4] [%]
1 | C#C[C@]1(O)CC[C@H]2[C@@H]3CCc4cc(O)ccc4[C@H]3CC[C@@]21C [EE2, 17α-ethynylestradiol] | substantially greater than the uterine weight of untreated ovariectomized test animals | substantial, expected increase in eosinophil infiltration | caused a decrease in serum cholesterol | –
2 | CCOCOc1ccc(-c2sc3cc(OCOCC)ccc3c2C(=O)c2ccc(OCCN3CCCCC3)cc2)cc1 [Example 3, 2-(4-[Ethoxymethoxy]phenyl)-3-(4-[(2-Piperidin-1-yl)ethoxy]benzoyl)-6-Ethoxymethoxybenzo[b]thiophene] | – | – | – | 9.1
